{"source": "patent US12440466B2", "about": "“Fatty acid derivatives for treating non-alcoholic steatohepatitis” (BASF AS, priority 2017, dated 2025)", "key": {"CDAA/high-fat fed mice [1]": {"system": "CDAA/high-fat fed mice", "assay": "Hepatic hydroxyproline (HYP) content, CDAA/high-fat diet induced NASH mouse model", "type": "in vivo", "excerpt": "Mouse models that are deficient in methionine and/choline (MCD and CDAA respectively) are well established for studying the development and treatment of NASH in pre-clinical drug development. As precursors for the synthesis of phosphatidylcholine, a dietary deficiency of methionine/choline leads to an inability to synthesize hepatic lipoproteins for the export of triglyceride that results in severe hepatic steatosis, inflammation and fibrosis.\nAlthough the widely used methionine-choline deficient (MCD) diet consistently reproduces severe NASH-like hepatic inflammation and fibrosis in mice, it is also associated with severe weight-loss (loss of both skeletal muscle and fat mass). This is associated with an increased risk of death which presents major problems for long-term fibrogenesis experiments.\nIn Biological Examples 1-7, studies were performed in male C56BL/6J mice (9 weeks old). Mice were fed either choline-sufficient (CS) or choline deficient high-fat diets (31% total calories; “CDAA/high-fat”). The NASH inducing diet was instigated 6 weeks prior to the commencement of treatment in order to design the study as a treatment/reversal set-up rather than prophylaxis.\n(§1) In Biological Examples 1-5, mice were divided into 6 experimental groups (n=9 per group) and fed either CS or CDAA/high-fat diets. After 6 weeks of either the CS- or CDAA diet, mice were orally administered Compound A or comparison Compound N, both at 2 doses, 0.15 mmol/kg bw/day (low-dose, LD) and 0.3 mmol/kg bw per day (high-dose, HD). The test substances were administered orally as admix to the high-fat diet. Hepatic fibrosis was assessed by both measurement of hydroxyproline (HYP) content and Sirius Red (SR) morphometry. Fibrosis, inflammation and metabolism related transcripts levels were measured by quantitative real-time polymerase chain reaction (qPCR)."}, "Col1a1 mRNA": {"system": "Col1a1 mRNA", "assay": "Hepatic Col1a1 mRNA expression by qPCR, CDAA/high-fat diet mouse model", "type": "in vivo", "conditions": "CDAA/high-fat fed mice", "excerpt": "(§2) Mice were fed either choline-sufficient (CS) or choline deficient high-fat diets (31% total calories; “CDAA/high-fat”). The NASH inducing diet was instigated 6 weeks prior to the commencement of treatment in order to design the study as a treatment/reversal set-up rather than prophylaxis.\nas §1, with “After” for “In Biological Examples 1-5, mice were divided into 6 experimental groups (n=9 per group) and fed either CS or CDAA/high-fat diets. After”\nStudies were performed in male C56BL/6J mice (9 weeks old). Mice were divided into 6 experimental groups (n=9 per group) containing either CS or CDAA/high-fat diets, as described above. The NASH inducing CDAA/high fat diet was instigated 6 weeks prior to the commencement of treatment in order to assess treatment/reversal rather than prophylaxis. […] Compound A was administered orally as admix to the high-fat diet whilst GLP-1 agonist was delivered via intraperitoneal injection (i.p.). Fibrosis, inflammation and metabolism related transcripts levels were measured by quantitative real-time polymerase chain reaction (qPCR) in isolated liver tissue."}, "CDAA/high-fat fed mice [2]": {"system": "CDAA/high-fat fed mice", "assay": "Hepatic collagen fiber number, thickness and length by nonlinear multiphoton optical imaging, CDAA/high-fat diet mouse model", "type": "in vivo", "conditions": "Compound A 56 mg/kg bw per day orally", "protocol": "as §2\nIn Biological Examples 6 and 7, mice were fed either CS or CDAA/high-fat diets as described above. […] The effect on hepatic collagen fiber number, thickness, and length was determined via nonlinear multiphoton optical imaging system in isolated liver samples from vehicle control (n=8), Compound A (n=9) and GLP-1R (n=8) fed groups."}, "[3]": {"system": "genes regulating extracellular matrix (ECM) stability or fibrolysis", "assay": "Hepatic ECM stability/fibrolysis gene expression by RNA sequencing in ob/ob AMLN mice", "type": "in vivo, mouse", "conditions": "4 weeks, Compound A 112 mg/kg, pioglitazone 30 mg/kg", "protocol": "(§3) Obese diet-induced B6.V-Lepob/Jrj mice (ob/ob) are consistently fibrosis (liver) prone when cholesterol (2%), 40% fat (containing 18% trans-fatty acids) and 20% fructose are added to a high-caloric diet (i.e., AMLN high-fat diet). ob/ob mice on AMLN diet (termed ‘ob/ob AMLN mice’) develop steatohepatitis and fibrosis within a shorter timeframe ([…]) compared with wild-type C57BL/6 mice (AMLN mice) fed the same diet. ob/ob AMLN mice provide an obese diet-induced model of NASH that also allows the study of effects on glycemic control. Development of NASH in the ob/ob AMLN model is confirmed by biopsy.\n(§4) In Biological Examples 10-12, 15, and 19, studies were performed in male ob/ob mice (5 weeks old) fed an AMLN high-fat diet for 15 weeks, then randomized into 3 groups (n=10 per group) to receive either 112 mg/kg bw per day of Compound A via diet, 30 mg/kg bw per day pioglitazone via diet or no treatment (vehicle) for a further 4 weeks. An oral glucose tolerance test (OGTT) was performed at week 3. Hepatic fibrosis was assessed via measurements of hepatic fibrogenic/fibrolytic gene expression by RNA sequencing at 4 weeks."}, "ob/ob AMLN mice [4]": {"system": "ob/ob AMLN mice", "assay": "Hepatic hydroxyproline (HYP) content in ob/ob AMLN mice", "type": "in vivo, mouse", "conditions": "8 weeks; for HYP content, total: p<0.01; for HYP content, relative: p<0.05", "protocol": "as §3\nIn Biological Examples 10, 13-14, and 16-18, studies were performed in male ob/ob mice (5 weeks old) fed an AMLN high-fat diet for 18 weeks, then randomized into 6 groups (n=10 per group) to receive either Compound A (at 3 different daily doses, 45 mg/kg, 90 mg/kg or 135 mg/kg) via diet, 30 mg/kg bw per day obeticholic acid (OCA) via diet, or no treatment (vehicle) for a further 8 weeks. Assessment of NASH related parameters and fibrosis was made at study end by quantitative immune histochemistry (IHC) measurements.\nTo corroborate the anti-fibrotic effects seen with quantitative IHC, hepatic concentrations of hydroxyproline (HYP) were measured, as shown in FIG. 6E and FIG. 6F."}, "ob/ob AMLN mice [5]": {"system": "ob/ob AMLN mice", "assay": "Oral glucose tolerance test (OGTT) and glycemic control in ob/ob AMLN mice", "type": "in vivo, mouse", "conditions": "after 3 weeks, Compound A 112 mg/kg, pioglitazone 30 mg/kg", "protocol": "as §3, §4\nAfter 3 weeks of administration of Compound A (112 mg/kg), pioglitazone, or vehicle control, an oral glucose tolerance test (OGTT) was performed in ob/ob AMLN mice."}, "CETP": {"system": "CETP", "assay": "CETP expression in APOE*3.CETP mice", "type": "in vivo, mouse", "conditions": "Compound A"}}, "note": "Marks after values point to notes of the source that are not given here."}
{"molecule": "CC/C=C\\C/C=C\\C/C=C\\C/C=C\\C/C=C\\CCCCOC(CC)C(=O)O", "note": "(stereo not shown) [Compound A, 2-((5Z,8Z,11Z,14Z,17Z)-icosa-5,8,11,14,17-pentaenyloxy)butanoic acid]", "values": [{"measurement": "Hydroxyproline (μg) content per 100 mg liver", "setting": "CDAA/high-fat fed mice [1]; HD 0.3 mmol/kg bw per day orally as admix to diet", "result": 37, "unit": "μg HYP/per 100 mg liver"}, {"measurement": "Hydroxyproline (μg) content per 100 mg liver", "setting": "CDAA/high-fat fed mice [1]; LD 0.15 mmol/kg bw/day orally as admix to diet", "result": 38, "unit": "μg HYP/per 100 mg liver"}, {"measurement": "Hydroxyproline (μg) content per liver", "setting": "CDAA/high-fat fed mice [1]; high dose (HD) 0.3 mmol/kg bw per day orally as admix to diet", "result": "750** μg"}, {"measurement": "Hydroxyproline (μg) content per liver", "setting": "CDAA/high-fat fed mice [1]; low dose (LD) 0.15 mmol/kg bw/day orally as admix to diet", "result": "800* μg"}, {"measurement": "Col1a1 (relative mRNA expression)", "setting": "Col1a1 mRNA; Compound A 0.3 mmol/kg bw/day oral, GLP-1a 0.4 mg/kg once weekly i.p., alone or combined", "result": "6.2***"}, {"measurement": "Col1a1 (relative mRNA expression)", "setting": "Col1a1 mRNA; HD 0.3 mmol/kg bw per day", "result": "6***"}, {"measurement": "Col1a1 (relative mRNA expression)", "setting": "Col1a1 mRNA; LD 0.15 mmol/kg bw/day", "result": "10***"}, {"measurement": "collagen fiber length", "setting": "CDAA/high-fat fed mice [2]", "result": "slight increases"}, {"measurement": "collagen fiber thickness", "setting": "CDAA/high-fat fed mice [2]", "result": "slight increases"}, {"measurement": "short (<8.5 μm) and thin (<3.5 μm) collagen fibers", "setting": "CDAA/high-fat fed mice [2]", "result": "almost complete disappearance"}, {"measurement": "reduction of collagen fiber numbers", "setting": "CDAA/high-fat fed mice [2]; p=0.01", "result": 51, "unit": "%"}, {"measurement": "hepatic expression of LOX-like 2 (LOXL2)", "setting": "[3]", "result": "significantly reduced"}, {"measurement": "hepatic expression of LOXL1", "setting": "[3]", "result": "significantly reduced"}, {"measurement": "hepatic expression of TIMP1", "setting": "[3]", "result": "significantly reduced"}, {"measurement": "hepatic expression of lysyl-oxidase (LOX)", "setting": "[3]", "result": "significantly reduced"}, {"measurement": "HYP content, total", "setting": "ob/ob AMLN mice [4]; Compound A 90 mg/kg", "result": "reduced"}, {"measurement": "HYP content, relative", "setting": "ob/ob AMLN mice [4]; Compound A 90 mg/kg", "result": "reduced"}, {"measurement": "HYP content, total", "setting": "ob/ob AMLN mice [4]; Compound A 135 mg/kg", "result": "reduced"}, {"measurement": "HYP content, relative", "setting": "ob/ob AMLN mice [4]; Compound A 135 mg/kg", "result": "reduced"}, {"measurement": "fasting plasma glucose levels", "setting": "ob/ob AMLN mice [5]", "result": "significant reductions"}, {"measurement": "glucose excursion after glucose load (AUC 0-240 mins), OGTT", "setting": "ob/ob AMLN mice [5]", "result": "significantly reduced"}, {"measurement": "CETP expression", "setting": "CETP", "result": "significantly reduce CETP expression"}]}
